# In US8202856B2 (Merck Serono SA, priority 2007, dated 2012):
# Biological target: S1P1 receptor (Homo sapiens, UniProt P21453)
# Test: 35S-GTPγS binding, membranes from CHO cells expressing S1P1
# Assay type: biochemical
# Settings: CHO cell membranes expressing S1P1
# Experimental: Receptor binding assay: Membranes were prepared from CHO cells expressing S1P1 or S1P3 for use in ligand and 35S-GTPTS binding studies. Cells were suspended in 50 mM TRIS, pH 7.4, 2 mM EDTA, 250 mM Sucrose (buffer A) and 1× Complete protease inhibitor cocktail (Roche), and disrupted at 4° C. by nitrogen decompression using a cell disruption bomb (Parr Instrument). Following centrifugation at 1000 RPM for 10 min at 4° C., the supernatant was suspended in buffer A and centrifuged again at 19000 RPM for 60 min at 4° C. The pellet was then suspended in 10 mM HEPES, pH 7.4, 1 mM EDTA, 250 mM Sucrose (Buffer B), and 1× Complete EDTA-free protease inhibitor cocktail and homogenized using a potter. Membranes were flash frozen in liquid nitrogen and stored at −80° C. [33P]sphingosine 1-phosphate (3000 Ci/mmol; American Radiolabeled Chemicals, Inc.) was added to test compounds in DMSO. Membranes and WGA SPA beads (GE Healthcare) were added to give a final volume of 100 μl in 96-well plates with assay concentrations of […] [33P]sphingosine 1-phosphate (respectively for S1P1 or S1P3), 50 mM HEPES, pH 7.5, 5 mM MgCl2, 100 mM NaCl, 0.4% fatty acid-free BSA, 1-5 μg/well of proteins and 100 μg/well of WGA SPA beads. Binding was performed for 60 min at room temperature on a shaker and bound radioactivity was measured on a PerkinElmer 1450 MicroBeta counter. Specific binding was calculated by subtracting remaining radioactivity in the presence of 1000-fold excess of unlabeled S1P. Binding data were analyzed using the GraphPad Prism program.
# Measurements of ^35S-GTPγS Binding: Membranes (1 to 10 μg protein) prepared as described above, were incubated in 96-well Scintiplates (PerkinElmer) with test compounds diluted in DMSO, in 180 μl of 20 mM HEPES, pH 7.4, 10 mM MgCl2, 2 μg/well Saponin, 0.2% fatty acid free BSA (Assay buffer), 140 mM NaCl and 1.7 μM GDP. The assay was initiated with the addition of 20 μl of 1.5 nM [35S]-GTPγS (1100 Ci/mmol; GE Healthcare) in assay buffer. After 60 min incubation at 30° C. on a shaker, plates were centrifuged for 10 min at 2000 RPM. Supernatant was discarded and membrane bound radioactivity was measured on a PerkinElmer 1450 MicroBeta counter. Triplicate samples were averaged and expressed as response relative to S1P activation in absence of compound (n=2).
# Sequence of S1P1 receptor (P21453 whole entry): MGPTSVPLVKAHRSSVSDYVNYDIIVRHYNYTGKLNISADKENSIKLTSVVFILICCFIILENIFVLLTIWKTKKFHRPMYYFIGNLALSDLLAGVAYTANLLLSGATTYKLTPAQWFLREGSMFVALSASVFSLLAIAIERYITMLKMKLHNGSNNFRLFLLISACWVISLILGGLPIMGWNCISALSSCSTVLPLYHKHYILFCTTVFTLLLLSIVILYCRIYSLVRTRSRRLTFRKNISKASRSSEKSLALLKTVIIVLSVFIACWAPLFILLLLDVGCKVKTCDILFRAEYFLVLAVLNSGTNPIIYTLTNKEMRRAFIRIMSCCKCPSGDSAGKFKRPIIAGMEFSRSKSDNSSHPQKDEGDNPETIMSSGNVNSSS
row,EC50 [nM],Compound
1,959,"COc1ccc(-c2noc(-c3nnn(-c4ccccc4F)c3-c3ccccn3)n2)cc1 [Example 57, 2-{1-(2-fluorophenyl)-4-[3-(4-methoxyphenyl)-1,2,4-oxadiazol-5-yl]-1H-1,2,3-triazol-5-yl}pyridine]"
2,1160,"Fc1ccccc1-c1noc(-c2nnn(-c3ccccc3F)c2Cc2ccccc2)n1 [Example 58, 5-[5-benzyl-1-(2-fluorophenyl)-1H-1,2,3-triazol-4-yl]-3-(2-fluorophenyl)-1,2,4-oxadiazole]"
3,620,"Fc1ccccc1-n1nnc(-c2nc(-c3cccc(CN4CCOCC4)c3)no2)c1-c1ccncc1 [Example 60, 4-(3-{5-[1-(2-fluorophenyl)-5-pyridin-4-yl-1H-1,2,3-triazol-4-yl]-1,2,4-oxadiazol-3-yl}benzyl)morpholine]"
4,310,"CC(C)c1c(-c2nc(-c3cc(F)ccc3F)no2)nnn1-c1ccccc1F [Example 63, 3-(2,5-difluorophenyl)-5-[1-(2-fluorophenyl)-5-isopropyl-1H-1,2,3-triazol-4-yl]-1,2,4-oxadiazole]"
5,8,"Oc1ccc(-c2noc(-c3nnn(-c4ccccc4F)c3-c3ccncc3)n2)cc1 [Example 64, 4-{5-[1-(2-fluorophenyl)-5-pyridin-4-yl-1H-1,2,3-triazol-4-yl]-1,2,4-oxadiazol-3-yl}phenol]"
6,26,"Fc1ccccc1-n1nnc(-c2nc(-c3ccncc3)no2)c1-c1ccccn1 [Example 66, 2-[1-(2-fluorophenyl)-4-(3-pyridin-4-yl-1,2,4-oxadiazol-5-yl)-1H-1,2,3-triazol-5-yl]pyridine]"
7,873,"COc1ccccc1-c1noc(-c2nnn(-c3ccccc3F)c2-c2ccccn2)n1 [Example 67, 2-{1-(2-fluorophenyl)-4-[3-(2-methoxyphenyl)-1,2,4-oxadiazol-5-yl]-1H-1,2,3-triazol-5-yl}pyridine]"
8,284,"COc1cccc(-c2noc(-c3nnn(-c4ccccc4F)c3-c3ccccn3)n2)c1 [Example 70, 2-{1-(2-fluorophenyl)-4-[3-(3-methoxyphenyl)-1,2,4-oxadiazol-5-yl]-1H-1,2,3-triazol-5-yl}pyridine]"
9,176,"Fc1ccc(F)c(-c2noc(-c3nnn(-c4ccccc4F)c3C3CCCO3)n2)c1 (stereo not drawn) [Example 71, 3-(2,5-difluorophenyl)-5-[1-(2-fluorophenyl)-5-(tetrahydrofuran-2-yl)-1H-1,2,3-triazol-4-yl]-1,2,4-oxadiazole]"
10,980,"Fc1ccccc1-n1nnc(-c2nc(-c3ccncc3)no2)c1C1CCCC1 [Example 72, 4-{5-[5-cyclopentyl-1-(2-fluorophenyl)-1H-1,2,3-triazol-4-yl]-1,2,4-oxadiazol-3-yl}pyridine]"
11,49,"NC(=O)c1ccc(-c2noc(-c3nnn(-c4ccccc4F)c3-c3ccncc3)n2)cc1 [Example 73, 4-{5-[1-(2-fluorophenyl)-5-pyridin-4-yl-1H-1,2,3-triazol-4-yl]-1,2,4-oxadiazol-3-yl}benzamide]"
12,1100,"CC(C)(C)OC(=O)NCc1ccc(-c2noc(-c3nnn(-c4ccccc4F)c3-c3ccncc3)n2)cc1 [Example 74, tert-butyl (4-{5-[1-(2-fluorophenyl)-5-pyridin-4-yl-1H-1,2,3-triazol-4-yl]-1,2,4-oxadiazol-3-yl}benzyl)carbamate]"
13,665,"Fc1ccccc1-n1nnc(-c2nc(-c3cccnc3)no2)c1Cc1ccccc1 [Example 75, 3-{5-[5-benzyl-1-(2-fluorophenyl)-1H-1,2,3-triazol-4-yl]-1,2,4-oxadiazol-3-yl}pyridine]"
14,583,"COCc1c(-c2nc(-c3ccc(S(N)(=O)=O)cc3)no2)nnn1-c1ccccc1F [Example 76, 4-{5-[1-(2-fluorophenyl)-5-(methoxymethyl)-1H-1,2,3-triazol-4-yl]-1,2,4-oxadiazol-3-yl}benzenesulfonamide]"
15,397,"Fc1ccccc1-c1noc(-c2nnn(-c3ccccc3F)c2C2CCCC2)n1 [Example 78, 5-[5-cyclopentyl-1-(2-fluorophenyl)-1H-1,2,3-triazol-4-yl]-3-(2-fluorophenyl)-1,2,4-oxadiazole]"
